Measured values taken from patent publication US20090028840A1, “Compositions For Preventing Or Treating Arthritis Comprising Lactic Acid Bacteria and Collangen As Active Ingredients” (Gwangju Institute of Sciecne and Technology, priority 2005, published 2009).

What was measured:
[1] = test system: collagen-induced arthritis (CIA); assay: Comparative tests for treatment efficacy in collagen-induced arthritis (CIA) rats; format: in vivo, Lewis rat; conditions: acute phase (until 35 days after immunization), FIGS. 3 and 4
[2] = test system: infiltration of lymphocytes into joint tissues; assay: Histological analysis of ankle joints of CIA rats (hematoxylin and eosin); format: in vivo, rat; conditions: 35 days after immunization, FIG. 5
From the text: Joints dissected were washed with PBS and fixed for 24 hr in 4% paraformaldehyde, followed by decalcification for 2-3 days in decalcification solution (Merck). The decalcified joint tissues were embedded in paraffin, sectioned to […], deparaffinized, stained with hematoxylin and eosin, and observed under microscope. A basic dye, hematoxylin binds to nucleus containing negative-charged DNA and RNA molecules and an acidic dye, eosin binds to cytoplasmic proteins and collagen with positive charge.

Row | Compound | treatment efficacy on arthritis during acute phase [1] | infiltration of lymphocytes (immune cells) into joints [2]
1 | CN(Cc1cnc2nc(N)nc(N)c2n1)c1ccc(C(=O)N[C@@H](CCC(=O)O)C(=O)O)cc1 [MTX, methotrexate] | better until acute phase (until 35 days after immunization) than the present composition | little or no occurrence of the infiltration of lymphocytes
2 | Lactobacillus casei [lactic acid bacteria] | low | –
